Measurements from patent US20130261058A1, “ACCELERATION OF WOUND HEALING BY GROWTH HORMONE RELEASING HORMONE AND ITS AGONISTS” (University of Miami, priority 2010, published 2013).
“Also recorded” adds a separate entry of the source.

Assays:
pituitary GHRH receptor = conditions: subcutaneous administration; cited from earlier work
MEFs [1] = experiment: Scratch wound migration assay of MEFs; type: cell-based, mouse; conditions: 100 nM, 18 h
Protocol: (§1) The rate of cell proliferation was evaluated by the Trypan blue exclusion assay under inverted microscope. Cell migration was performed by the “scratch” assay as described, exposing cells to the peptides for 18 h (33). For the transwell-based migration assay, MEFs were seeded on 8 μm pore size transwells (Corning) and after 5 days exposure to the peptides at the indicated concentration, cell number was evaluated in the bottom compartment. All in vitro experiments were performed in triplicate and similar results were obtained.
(§2) Subsequently MEFs were subjected to scratch wound migration assays in vitro, following exposure to GHRH and 31-38 at 100 nM. […] A considerable, notwithstanding not significant, stimulation of cell migration, by about 2-fold as compared to the controls, was also evidenced at 500 nM GHRH or 31-38. In order to rule out the possibility that the results of these two migration assays were simply due to the increased proliferation, MEFs were exposed to the peptide analogs and cell proliferation was evaluated.

subcutaneous peptidases = conditions: cited from earlier work
[2] = tested on: 4 mm circular skin wounds; experiment: Wound healing assay in vivo, 4 mm skin biopsy wounds, wound area; conditions: mice; for wound healing compared to controls: 100 nM applied twice daily to the wound
Protocol: (§3) Wild-type mice of mixed C57BL6/FVB genetic background, originally obtained by Jackson Laboratories were maintained in our laboratory. Care of animals was in accord with University of Athens Institutional guidelines. The reporter αSMA-βGal mice have been described elsewhere (32). Wound healing assay in vivo was performed after administration of anesthesia (100 mg/kg ketamine, 10 mg/kg xylazine). Mice were shaved in the back, wiped with ethanol and wounds were cut using a biopsy punch (4 mm). The skin was grabbed at dorsal midline and placed over a cardboard backing on one side of the skin fold. The biopsy punch was pressed until both layers of the skin were punched and the cardboard was reached. Four wounds were performed per mouse, two on each side of the dorsal midline, at equal distance, so that the tension of the skin would be equal all over the mouse back and would not influence the contraction of the wounds. The experimental protocol was reviewed and approved by the University of Athens Animal Experimentation Committee. GHRH and JI-38 (100 nM) were applied twice daily in a volume of approximately 50 μl. At least 10 wounds for each of the control (vehicle, PBS), GHRH or JI-38 were observed. In order to avoid study variation due to the wound healing variability between different experimental animals, each mouse was its own control. For wound area measurements digital pictures of wounds were analyzed by the ImageJ (N1H) software. Wound size was monitored over time relative to a 4 mm diameter circular paper cutout placed next to the wound as previously described (38). For histology, 4-6 wounds per time point per group were analyzed. Similar results were obtained among different mice and histological sections for each group and representative are shown.
In order to evaluate the effect of GHRH on wound healing in vivo, wild type mice were subjected to 4 mm skin biopsies and the healing of the inflicted wounds in the presence or absence of GHRH and JI-38 at 100 nM was observed daily. In order to avoid variation in the wound healing process between different experimental animals, a control wound was always included in each mouse, thus permitting paired analysis.

MEFs [3] = experiment: Transwell-based migration assay (8 μm pore) of MEFs; type: cell-based, mouse; conditions: for increase of migration through 8 μm-pore transwells compared to controls / stimulation of cell migration through transwells compared to controls: 5 days exposure; for increase of migration through 8 μm-pore transwells compared to controls: p<0.05; for stimulation of cell migration through transwells compared to controls: not significant
Protocol: as §1, §2

[4] = tested on: 4 mm circular skin wounds; experiment: Histology, fibroblast counting and Van Gieson staining of 4 mm skin wounds; type: in vivo, mice; conditions: for content of fibroblasts in wounds (histology) compared to controls: day 5, 100 nM twice daily; for increase of fibroblast density in the wound area: vs controls, direct counting, 100 nM twice daily, p<0.05, FIG. 6
Protocol: FIG. 6. Quantification of fibroblast content in 4 mm circular skin wounds in mice exposed to GHRH or GHRH agonist JI-38 twice per day at 100 nM on day 5 and 8. Fibroblast number was assessed by direct counting of fibroblast in at least 3 random optic fields in the wound areas under light microscope and expressed relative to the fibroblast content in the controls on day 5. Data are expressed as mean±SEM. *, p<0.05.
(§4) hGHRH(1-29)NH2 was obtained from Sigma. Agonist JI-38 was synthesized as reported (24, 26). The peptides were dissolved in phosphate buffered saline (PBS) at the indicated concentrations. Controls contained solvent alone. Fibroblasts were isolated using standard methods and maintained in Dulbecco's Modified Eagle Medium containing 10% FBS and antibiotics/antimycotics. For all experiments, primary fibroblasts of less than 10 passages old were used. For Western blot analysis, antibodies for αSMA, FAK and actin were obtained from Sigma while for SV1; the antibody 2317/5 was used (35). The same antibody was also used for the immunohistochemistry as previously described (36). Histology was performed on standard 5 μm sections of paraffin embedded material stained with hematoxylin/eosin. βGal-staining was performed in lung fibroblasts, isolated from transgenic mice bearing an αSMA-beta galactosidase reporter transgene. After treatment with the peptides for 24 hours, cells were washed (three times each for 5 min) with 0.1M PBS (pH 7.4), and fixed with 0.05% glutaraldehyde in PBS, for 10 min at room temperature. After three more washes, cells were stained with 1 mg/ml of 5-bromo-4-chloro-3indonyl β-D-galactopyranoside, 5 mM potassium ferrocyanide, 5 mM potassium ferricyanide and 2 mM MgCl2) overnight at 37° C.
as §3
Tissue sections from mice wounds were de-paraffinized and rehydrated in distilled H2O. These sections were then stained in orcein (Sigma) 1% w/v in 96% ethanol for 30 min at room temperature and washed in distilled H2O. […]

[5] = tested on: focal adhesion kinase (FAK); experiment: Immunoblot analysis of FAK expression in MEFs; type: cell-based, mouse; conditions: 100 nM, 24 h, Western blot
Protocol: as §4
(§5) αSMA is an actin isoform that confers tensional and contractile activity (25,26). […]

[6] = tested on: α-smooth muscle actin (αSMA); experiment: Immunoblot analysis of αSMA expression in MEFs; type: cell-based, mouse
Protocol: as §4
αSMA is an actin isoform that confers tensional and contractile activity (25,26). Typically SMA is selectively expressed in smooth muscle cells of adult animals, but is induced in activated fibroblasts (myofibroblasts) during wound healing, within the stroma of many tumors, and in general under conditions where there is extensive tissue reorganization and regeneration (27,28). […] Of interest, this effect was significant at a concentration of 100 nM but not 500 nM of either peptide. A similar pattern of expression was found for focal adhesion kinase (FAK), an enzyme which plays a role in cell migration and invasion (29). The activation of αSMA in fibroblasts following GHRH treatment was confirmed in lung fibroblasts isolated from transgenic mice bearing a reporter β-galactosidase (βGal) transgene under the regulation of the αSMA promoter/enhancer (30). Cells from these mice display βGal positivity when αSMA expression is activated (30).

MEFs [7] = experiment: Cell proliferation by Trypan blue exclusion assay in MEFs; type: cell-based, mouse
Protocol: as §1, §2

[8] = tested on: αSMA promoter-βGal reporter transgene; experiment: βGal staining of lung fibroblasts from αSMA promoter-βGal reporter transgenic mice; type: cell-based; conditions: 100 nM and 500 nM, 24 h
Protocol: as §4, §5

SV1 = experiment: Immunoblot analysis of SV1 expression in MEFs; type: cell-based, mouse; conditions: 500 nM, 24 h
Protocol: as §4, with “After three more washes, cells were stained with 1 mg/ml of 5-bromo-4-chloro-3indonyl β-D-galactopyranoside, 5 mM potassium ferrocyanide, 5 mM potassium ferricyanide and 2 mM MgCl2) overnight at 37° C.” left out
It was evaluated whether MEFs express the receptor for GHRH SV1. Primary MEFs were exposed to GHRH and agonistic GHRH analog JI-38 (24, 26) at 100 nM and 500 nM for 24 h and SV1 expression was then assessed by immunoblot analysis.

Row | Substance | migration of MEFs in scratch assay compared to controls (MEFs [1]) | wound healing compared to controls [2] | day on which acceleration of wound healing was first evidenced ([2]; 100 nM twice daily) [days] | time to nearly complete healing ([2]; 100 nM twice daily) | migration of MEFs in 8 μm-pore transwell system (figure legend) (MEFs [3]; 100 nM) | increase of migration through 8 μm-pore transwells compared to controls (MEFs [3]; 100 nM) | stimulation of cell migration through transwells compared to controls (MEFs [3]; 500 nM) | content of fibroblasts in wounds (histology) compared to controls [4] | collagen fibers in the lamina propria, Van Gieson staining ([4]; day 8, 100 nM twice daily) | histology of epidermis, dermis and stroma ([4]; day 8, 100 nM twice daily) | increase of fibroblast density in the wound area [4] | FAK expression [5] | SMA expression ([6]; 100 nM, 24 h, immunoblot) | SMA expression ([6]; 500 nM, compared with 100 nM) | proliferation of MEFs (MEFs [7]; 100 nM) | proliferation of MEFs (MEFs [7]; 500 nM) | further results
1 | [Dat^1, Gln^8, Orn^12,21, Abu^15, Nle^27, Asp^28, Agm^29]hGH-RH(1-29)NH2 [JI-38] | considerably increased | considerable acceleration | 3 | about 10 days post-incision | significantly increased | ~3 fold | about 2 fold | to a lesser extent; also recorded: considerable increase | could not be seen | dense and rich in fibroblasts | ~40% | induced | stimulated; also recorded: induced | less pronounced | no considerable effect | no considerable effect | potency relative to GHRH in in vivo growth hormone release assay (pituitary GHRH receptor): much more potent than GHRH; migration of MEFs in scratch assay compared to controls (MEFs [1]; listed as 51-38): increased migration; stability against subcutaneous peptidases (subcutaneous peptidases): resistance to degradation by subcutaneous peptidases; potency in transwell-based migration assay relative to GHRH (MEFs [3]): more potent than GHRH; migration of MEFs in 8 μm-pore transwell system (figure legend) (MEFs [3]; 500 nM): significantly increased; increase in fraction of βGal-positive (αSMA-lacZ positive) cells compared to untreated controls ([8]; listed as 31-38): about 3 fold; increase in fraction of βGal-positive (αSMA-lacZ positive) cells compared to untreated controls ([8]; listed as 51-38): ~3 fold
2 | hGHRH(1-29)NH2 | considerably increased; also recorded: increased migration | considerable acceleration | 3 | about 10 days post-incision | significantly increased | about 2.5 fold | about 2 fold | increased content of fibroblasts; also recorded: considerable increase | nearly normally arranged collagen fibers | almost normal with a diffuse mild inflammatory infiltration | about 80% | induced | stimulated; also recorded: induced | less pronounced | stimulated proliferation | no considerable effect | potency histologically and macroscopically at equimolar concentrations ([2]; 100 nM twice daily): more potent than 31-38; levels of SV1 expression (SV1): upregulated; reformation of the covering epithelium ([4]; day 8, 100 nM twice daily): almost complete
